A word on the CC50: it is the concentration giving 50% cytotoxicity. A low value points to harm at low concentration. For orientation: melting point means the temperature of the solid-liquid transition.

Like-named read-outs stand apart in the source and are kept apart here. Some results are limits rather than exact numbers.

Results on three molecules are retold here after patent publication US20050288307A1, “Anti-viral compounds” (priority 2002, published 2005).

Data set [1] can be described thus: Compound cytotoxicity in PBMC assay plates (MTS cell viability). As to conditions: human, TC50 (concentration decreasing cell viability by 50%).
For data set [2], the system named is HIV-1RoJo/PBMC. As to the kind of experiment: Anti-HIV efficacy in fresh human PBMCs, strain RoJo. Format: cell-based. The protocol: (§1) Fresh PBMCs, seronegative for HIV and HBV, were isolated from screened donors (Interstate Blood Bank, Inc. Memphis, Tenn.). Cells were pelleted/washed 2-3 times by low speed centrifugation and re-suspension in PBS to remove contaminating platelets. […] Banded PBMCs were gently aspirated from the resulting interface and subsequently washed with PBS by low speed centrifugation. […] The cells were allowed to incubate at 37° C. […] IL-2 is included in the culture medium to maintain the cell division initiated by the PHA mitogenic stimulation. PBMCs were maintained in this with bi-weekly medium changes until used in the assay protocol. Cells were kept in culture for a maximum of two weeks before being deemed too old for use in assays and discarded. Monocytes were depleted from the culture as the result of adherence to the tissue culture flask.
(§2) Tritiated thymidine triphosphate (^3H-TTP, 80 Ci/mmol, NEN) was received in 1:1 dH2O:Ethanol at 1 mCi/mL. Poly rA:oligo dT template:primer (Pharmacia) was prepared as a stock solution, followed by aliquoting and storage at −20° C. The RT reaction buffer was prepared fresh on a daily basis. The final reaction mixture was prepared by combining ^3H-TTP, dH2O, poly rA:oligo dT stock and reaction buffer. This reaction mixture was placed in a round bottom microtiter plate and supernatant containing virus was added and mixed. The plate was incubated at 37° C. for 60 minutes. Following incubation, the reaction volume was spotted onto DE81 filter-mats (Wallac), in a sodium phosphate buffer or 2×SSC (Life Technologies). Next they were washed in distilled water, in 70% ethanol, and then dried. Incorporated radioactivity (counts per minute, CPM) was quantified using standard liquid scintillation techniques.

Data set [3] has as its system HIV-1WeJo/PBMC. As to the kind of experiment: Anti-HIV efficacy in fresh human PBMCs, strain WeJo. Format: cell-based. The protocol: as §1, §2
Data set [4] concerns the target CDK9/cyclin T1 (Homo sapiens, UniProt P50750). As to the kind of experiment: CDK9 assay (CTD peptide substrate). As to conditions: Table 3; read-out: Average IC50 CDK9 cyclin T1. Format: biochemical. Put shortly:
(§3)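 Recombinant human CDK7/cyclin H or CDK9/cyclin T1 with biotinylated CTD peptide, 45 min at 30 °C, pH 7.2 MOPS buffer, 15 mM MgCl2, 100 μM ATP with trace [γ-32P]ATP. Avidin capture on P81 filters, phosphoric acid washes, 32P incorporation by scintillation counting.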

Data set [5] has as its target CDK7/cyclin H (Homo sapiens, UniProt P50613). As to the kind of experiment: CDK7 assay (CTD peptide substrate). It counts as biochemical. As to conditions: Table 3; read-out: Average IC50 CDK7 cyclin H. Put shortly:
as §3

Data set [6] relates to HIV-1. As to the kind of experiment: Anti-viral cell-based assays. As to conditions: result in words.
Data set [7] relates to CaMKII. It counts as biochemical. As to conditions: Table 2.
[8] abbreviates: Human immunodeficiency virus 1, read-out: IC50 (concentration inhibiting virus replication by 50%), HIV-1RoJo/PBMC.
The mark [9] stands for this setting: Human immunodeficiency virus 1, read-out: IC90 (concentration inhibiting virus replication by 90%), HIV-1RoJo/PBMC.
Setting [10] is: Human immunodeficiency virus 1, read-out: IC50 (concentration inhibiting virus replication by 50%), HIV-1WeJo/PBMC.
Where [11] appears, read: Human immunodeficiency virus 1, read-out: IC90 (concentration inhibiting virus replication by 90%), HIV-1WeJo/PBMC.
[12] abbreviates: Human immunodeficiency virus 1, PBMC, read-out: IC50 (concentration inhibiting virus replication by 50%).
The mark [13] stands for this setting: Human immunodeficiency virus 1, PBMC, read-out: IC90 (concentration inhibiting virus replication by 90%).

CDK7/cyclin H, sequence (P50613 whole entry): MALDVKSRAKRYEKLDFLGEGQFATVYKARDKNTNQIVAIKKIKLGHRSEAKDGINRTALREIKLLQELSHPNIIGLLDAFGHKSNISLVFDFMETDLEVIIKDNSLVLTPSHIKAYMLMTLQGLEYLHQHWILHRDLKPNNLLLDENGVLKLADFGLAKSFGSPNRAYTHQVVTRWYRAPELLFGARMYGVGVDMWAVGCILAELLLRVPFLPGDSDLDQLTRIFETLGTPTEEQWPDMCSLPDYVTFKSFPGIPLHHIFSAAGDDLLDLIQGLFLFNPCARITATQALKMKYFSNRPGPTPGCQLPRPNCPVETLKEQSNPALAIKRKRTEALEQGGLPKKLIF
CDK7/cyclin H, sequence (P51946 whole entry partner): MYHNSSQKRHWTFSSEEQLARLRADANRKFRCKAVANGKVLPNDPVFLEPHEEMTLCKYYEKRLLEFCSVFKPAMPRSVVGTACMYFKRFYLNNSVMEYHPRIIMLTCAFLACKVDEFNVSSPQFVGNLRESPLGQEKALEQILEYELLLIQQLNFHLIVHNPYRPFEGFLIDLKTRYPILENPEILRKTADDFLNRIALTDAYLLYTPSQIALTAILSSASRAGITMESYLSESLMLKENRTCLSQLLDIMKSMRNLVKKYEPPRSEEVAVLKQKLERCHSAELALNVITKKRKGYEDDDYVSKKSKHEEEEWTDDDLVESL
CDK9/cyclin T1, sequence (P50750 whole entry): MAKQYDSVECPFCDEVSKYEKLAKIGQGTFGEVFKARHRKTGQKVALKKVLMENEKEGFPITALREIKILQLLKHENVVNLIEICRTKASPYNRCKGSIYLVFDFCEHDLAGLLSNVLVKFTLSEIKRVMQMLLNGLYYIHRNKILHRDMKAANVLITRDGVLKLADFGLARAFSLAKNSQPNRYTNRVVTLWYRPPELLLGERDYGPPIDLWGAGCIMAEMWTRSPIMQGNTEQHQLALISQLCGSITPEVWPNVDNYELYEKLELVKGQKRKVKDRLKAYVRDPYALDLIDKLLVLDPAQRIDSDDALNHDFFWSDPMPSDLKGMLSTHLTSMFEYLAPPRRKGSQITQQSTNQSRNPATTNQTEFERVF
CDK9/cyclin T1, sequence (O60563 whole entry partner): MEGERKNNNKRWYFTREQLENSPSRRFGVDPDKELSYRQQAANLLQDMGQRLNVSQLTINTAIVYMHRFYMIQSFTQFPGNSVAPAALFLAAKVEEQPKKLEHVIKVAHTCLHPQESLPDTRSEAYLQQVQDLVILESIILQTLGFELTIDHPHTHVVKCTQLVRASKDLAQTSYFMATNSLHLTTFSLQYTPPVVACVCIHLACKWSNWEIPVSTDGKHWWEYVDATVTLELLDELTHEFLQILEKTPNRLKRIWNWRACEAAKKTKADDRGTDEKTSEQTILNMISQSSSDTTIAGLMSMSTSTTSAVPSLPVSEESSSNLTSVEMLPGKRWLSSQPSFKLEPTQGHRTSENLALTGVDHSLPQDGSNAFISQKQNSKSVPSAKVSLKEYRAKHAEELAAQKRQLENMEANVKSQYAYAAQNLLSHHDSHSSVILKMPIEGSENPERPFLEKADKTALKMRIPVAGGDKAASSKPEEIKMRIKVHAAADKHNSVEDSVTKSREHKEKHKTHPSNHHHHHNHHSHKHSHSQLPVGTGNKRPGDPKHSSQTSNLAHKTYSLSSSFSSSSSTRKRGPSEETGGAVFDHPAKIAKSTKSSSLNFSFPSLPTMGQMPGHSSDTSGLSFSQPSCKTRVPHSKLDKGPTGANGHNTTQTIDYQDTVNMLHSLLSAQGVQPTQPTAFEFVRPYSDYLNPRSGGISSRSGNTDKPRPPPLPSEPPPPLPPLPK

As to `Cc1nc(C)c(-c2ccnc(Nc3ccc(N(C)C)c(Cl)c3)n2)s1` [Compound 128, 2-Chloro-N^4-[4-(2,4-dimethyl-thiazol-5-yl)-pyrimidin-2-yl]-N^1,N^1-dimethyl-benzene-1,4-diamine], the CC50 at 7 days in data set [1] (HIV-1RoJo/PBMC) is 4300 nM; in data set [1] (HIV-1WeJo/PBMC), above 100000 nM. For the same molecule, the IC50 is 740 nM in data set [2] (setting [8]), 860 nM in data set [3] (setting [10]), 450 nM in data set [4] and 6300 nM in data set [5]. Besides, the IC90 in data set [2] (setting [9]) was 2700 nM; in data set [3] (setting [11]), 2000 nM. For the same molecule, the “anti-viral effectiveness as demonstrated by cell-based assays” value (“anti-viral effectiveness as demonstrated” below) in data set [6] is on record as “particularly effective anti-viral agents”.

`Cc1nc(N)sc1-c1ccnc(Nc2cccc([N+](=O)[O-])c2)n1` [Compound 105, [4-(2-Amino-4-methyl-thiazol-5-yl)-pyrimidin-2-yl]-(3-nitro-phenyl)-amine]: the IC50 in data set [7] is above 100000 nM; in data set [2] (setting [12]), 67 nM; in data set [3] (setting [12]) it was 5 nM. For the same molecule, the CC50 at 7 days in data set [1] (HIV-1RoJo/PBMC) worked out at 1600 nM; in data set [1] (HIV-1WeJo/PBMC) it was 200 nM. Moreover, the IC90 in data set [2] (setting [13]) turned out to be 350 nM; in data set [3] (setting [13]), 14 nM. In data set [6], the “anti-viral effectiveness as demonstrated” value was “particularly effective anti-viral agents”.

`Cc1nc(C)c(-c2ccnc(Nc3ccc(I)cc3)n2)s1` [Compound 21, [4-(2,4-Dimethyl-thiazol-5-yl)-pyrimidin-2-yl]-(4-iodo-phenyl)-amine] displayed a melting point of 171 to 173 °C. For the same molecule, the 50% cytotoxic concentration (CC50) at 7 days in data set [1] (HIV-1RoJo/PBMC) amounted to 31000 nM. In addition, the cytotoxic concentration (CC50) at 7 days in data set [1] (HIV-1WeJo/PBMC) turned out to be 64000 nM. The “TI (therapeutic index: TC50/IC50)” value in data set [2] (HIV-1RoJo/PBMC) stood at 495. In addition, the IC50 in data set [2] (setting [8]) is 62 nM. Further, in data set [2] (setting [9]), the IC90 amounted to 100 nM. Further, in data set [3] (HIV-1WeJo/PBMC), the “TI (therapeutic index: TC50/IC50)” value is recorded as 2190. Further, in data set [3] (setting [10]), the IC50 was 29 nM. Also, in data set [3] (setting [11]), the IC90 is 48 nM. Moreover, in data set [6], the “anti-viral effectiveness as demonstrated” value is “particularly effective anti-viral agents”.
